Source: patent publication US20240083890A1, “MACROCYCLIC BRANCHED 3-FLUORO-BUT-3-ENAMIDES AS INHIBITORS OF MCL-1” (JANSSEN PHARMACEUTICA NV, priority 2020, published 2024)

Tests used:
[1] = system: MOLP-8 human multiple myeloma cell line; test: Caspase-Glo 3/7 apoptosis induction assay in MOLP-8 cells; format: cell-based; details: Homo sapiens, MOLP-8; caspase-3/7 activation, 2 hours incubation at 37° C.; averaged over all runs on all batches; read-out: MOLP8 AC50
From the text: MCL-1 is a regulator of apoptosis and is highly over-expressed in tumor cells that escape cell death. The assay evaluates the cellular potency of small-molecule compounds targeting regulators of the apoptosis pathway, primarily MCL-1, Bfl-1, Bcl-2, and other proteins of the Bcl-2 family. Protein-protein inhibitors disrupting the interaction of anti-apoptotic regulators with BH3-domain proteins initiate apoptosis.
The Caspase-Glo® 3/7 Assay is a luminescent assay that measures caspase-3 and -7 activities in purified enzyme preparations or cultures of adherent or suspension cells. The assay provides a proluminescent caspase-3/7 substrate, which contains the tetrapeptide sequence DEVD. This substrate is cleaved to release aminoluciferin, a substrate of luciferase used in the production of light. Addition of the single Caspase-Glo® 3/7 Reagent in an “add-mix-measure” format results in cell lysis, followed by caspase cleavage of the substrate and generation of a “glow-type” luminescent signal.
This assay uses the MOLP-8 human multiple myeloma cell line, which is sensitive to MCL-1 inhibition.
Cell cultures were maintained between 0.2 and 2.0×10^6 cells/mL. The cells were harvested by collection in 50 mL conical tubes. The cells were then pelleted at 500 g for 5 mins before removing supernatant and resuspension in fresh pre-warmed culture medium. The cells were counted and diluted as needed.
The assay reagent was prepared by transferring the buffer solution to the substrate vial and mixing. The solution may be stored for up to 1 week at 4° C. with negligible loss of signal.
Compounds were delivered in assay-ready plates (Proxiplate) and stored at −20° C.
Assays always include 1 reference compound plate containing reference compounds. The plates were spotted with 40 nL of compounds (0.5% DMSO final in cells; serial dilution; 30 μM highest conc. 1/3 dilution, 10 doses, duplicates). The compounds were used at room temperature and 4 μL of pre-warmed media was added to all wells except column 2 and 23. The negative control was prepared by adding 1% DMSO in media. The positive control was prepared by adding the appropriate positive control compound in final concentration of 60 μM in media. The plate was prepared by adding 4 μL negative control to column 23, 4 μL positive control to column 2, and 4 μL cell suspension to all wells in the plate. The plate with cells was then incubated at 37° C. for 2 hours. The assay signal reagent is the Caspase-Glo solution described above, and 8 μL was added to all wells. The plates were then sealed and measured after 30 minutes.
The activity of a test compound was calculated as percent change in apoptosis induction as follows: • LC=median of the Low Control values • =Central Reference in Screener • =DMSO • =0% • HC=Median of the High Control values • =Scale Reference in Screener • =30 μM of positive control • =100% apoptosis induction
% Effect (AC50)=100−((sample-LC)/(HC-LC))*100
% Control=(sample/HC)*100
% Control min=((sample-LC)/(HC-LC))*100
Table: Measured AC50 for Representative Compounds of Formula (I). Averaged values are reported over all runs on all batches of a particular compound.

Mcl-1 = Mcl-1 (Homo sapiens (Human), UniProt Q07820); test: Terbium labeled Mcl-1 HTRF binding assay, displacement of Cy5-labeled BIM BH3 peptide; details: Ki=IC50/(1+[L]/Kd), [L]=8 nM, Kd=10 nM; 25 pM Tb-Mcl-1, 8 nM Cy5 Bim peptide, 60 min; read-out: Tb-MCL1 Ki
Sequence of Mcl-1 (Q07820 whole entry): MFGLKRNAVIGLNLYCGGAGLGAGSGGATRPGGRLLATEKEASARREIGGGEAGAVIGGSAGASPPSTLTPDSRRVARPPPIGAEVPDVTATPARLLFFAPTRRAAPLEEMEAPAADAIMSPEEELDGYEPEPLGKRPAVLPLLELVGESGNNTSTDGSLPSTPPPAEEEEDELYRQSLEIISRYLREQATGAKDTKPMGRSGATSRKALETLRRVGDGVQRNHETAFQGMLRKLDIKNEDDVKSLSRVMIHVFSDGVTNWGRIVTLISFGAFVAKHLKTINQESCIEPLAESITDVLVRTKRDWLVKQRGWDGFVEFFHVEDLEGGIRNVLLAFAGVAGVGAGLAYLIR
Protocol: Terbium labeled Myeloid Cell Leukemia 1(Mcl-1) homogeneous time-resolved fluorescence (HTRF) binding assay utilizing the BIM BH3 peptide (H2N—(C/Cy5Mal) WIAQELRRIGDEFN-OH) as the binding partner for Mcl-1.
This assay evaluated inhibition of the BH3 domain: Mcl-1 interaction by measuring the displacement of Cy5-labeled BIM BH3 peptide (H2N—(C/Cy5Mal) WIAQELRRIGDEFN-OH) in the HTRF assay format.
The following assay and stock buffers were prepared for use in the assay: (a) Stock buffer: 10 mM Tris-HCl, pH=7.5+150 mM NaCl, filtered, sterilized, and stored at 4° C.; and (b) 1× assay buffer, where the following ingredients were added fresh to stock buffer: 2 mM dithiothreitol (DTT), 0.0025% Tween-20, 0.1 mg/mL bovine serum albumin (BSA). The 1× Tb-Mcl-1+Cy5 Bim peptide solution was prepared by diluting the protein stock solution using the 1× assay buffer (b) to 25 pM Tb-Mcl-1 and 8 nM Cy5 Bim peptide.
Using the Acoustic ECHO, 100 nL of 100× test compound(s) were dispensed into individual wells of a white 384-well Perkin Elmer Proxiplate, for a final compound concentration of 1× and final DMSO concentration of 1%. Inhibitor control and neutral control (NC, 100 nL of 100% DMSO) were stamped into columns 23 and 24 of assay plate. Into each well of the plate was then dispensed 10 μL of the 1× Tb-Mcl-1+Cy5 Bim peptide solution. The plate was centrifuged with a cover plate at 1000 rpm for 1 minute, then incubated for 60 minutes at room temperature with plates covered.
The TR-FRET signal was read on an BMG PHERAStar FSX MicroPlate Reader at room temperature using the HTRF optic module (HTRF: excitation: 337 nm, light source: laser, emission A: 665 nm, emission B: 620 nm, integration start: 60 μs, integration time: […]).
The BMG PHERAStar FSX MicroPlate Reader was used to measure fluorescence intensity at two emission wavelengths—665 nm and 620 nm—and report relative fluorescence units (RFU) for both emissions, as well as a ratio of the emissions (665 nm/620 nm)*10,000. The RFU values were normalized to percent inhibition as follows:
% inhibition (((NC−IC)−(compound-IC))/(NC−IC))*100
where IC (inhibitor control, low signal)=mean signal of 1× Tb-MCl-1+Cy5 Bim peptide+inhibitor control or 100% inhibition of Mel-1; NC (neutral control, high signal)=mean signal 1× Tb-MCI-1+Cy5 Bim peptide with DMSO only or 0% inhibition
An 11-point dose response curve was generated to determine IC50 values (using GenData) based on the following equation:
Y=Bottom+(Top-Bottom)/(1+10^((log IC50−X)*HillSlope))
where Y=% inhibition in the presence of X inhibitor concentration; Top=100% inhibition derived from the IC (mean signal of Mcl-1+inhibitor control); Bottom=0% inhibition derived from the NC (mean signal of Mcl-1+DMSO); Hillslope=Hill coefficient; and IC50=concentration of compound with 50% inhibition in relation to top/neutral control (NC).
In this assay [L]=8 nM and Kd=10 nM
Representative compounds of the present invention were tested according to the procedure as described above, with results as listed in the Table below (n.d. means not determined).

SMILES	AC50 [1] [nM]	Ki (Mcl-1) [nM]
COCC(COC)OC[C@H](O)[C@H]1/C(F)=C/C[C@H](C)[C@@H](C)S(=O)(=O)NC(=O)c2ccc3c(c2)N(C[C@@H]2CCN21)C[C@@]1(CCCc2cc(Cl)ccc21)CO3 [Compound 24]	46.3	0.036
COCCN(CC1CCOCC1)C[C@H](O)[C@H]1/C(F)=C/C[C@H](C)[C@@H](C)S(=O)(=O)NC(=O)c2ccc3c(c2)N(C[C@@H]2CCN21)C[C@@]1(CCCc2cc(Cl)ccc21)CO3 [Compound 25]	36.6	0.025
COCCCN(CCOC)C[C@H](O)[C@H]1/C(F)=C/C[C@H](C)[C@@H](C)S(=O)(=O)NC(=O)c2ccc3c(c2)N(C[C@@H]2CCN21)C[C@@]1(CCCc2cc(Cl)ccc21)CO3 [Compound 26]	123	0.044
C[C@@H]1[C@@H](C)C/C=C(\F)[C@H]([C@@H](O)CN(C)CCC2CCOCC2)N2CC[C@H]2CN2C[C@@]3(CCCc4cc(Cl)ccc43)COc3ccc(cc32)C(=O)NS1(=O)=O [Compound 27]	746	0.053
C[C@@H]1[C@@H](C)C/C=C(\F)[C@H]([C@@H](O)CN(C)CC2CCOCC2)N2CC[C@H]2CN2C[C@@]3(CCCc4cc(Cl)ccc43)COc3ccc(cc32)C(=O)NS1(=O)=O [Compound 28]	211	0.037
COCCN(C)C[C@H](O)[C@H]1/C(F)=C/C[C@H](C)[C@@H](C)S(=O)(=O)NC(=O)c2ccc3c(c2)N(C[C@@H]2CCN21)C[C@@]1(CCCc2cc(Cl)ccc21)CO3 [Compound 29]	385	0.044
COCCOCCN(C)C[C@H](O)[C@H]1/C(F)=C/C[C@H](C)[C@@H](C)S(=O)(=O)NC(=O)c2ccc3c(c2)N(C[C@@H]2CCN21)C[C@@]1(CCCc2cc(Cl)ccc21)CO3 [Compound 30]	944	0.036
C[C@@H]1[C@@H](C)C/C=C(\F)[C@H]([C@@H](O)CN(C)C)N2CC[C@H]2CN2C[C@@]3(CCCc4cc(Cl)ccc43)COc3ccc(cc32)C(=O)NS1(=O)=O [Compound 31]	1020	0.041
CO[C@H](C)[C@H]1/C(F)=C/C[C@H](C)[C@@H](C)S(=O)(=O)NC(=O)c2ccc3c(c2)N(C[C@@H]2CCCN21)C[C@@]1(CCOc2cc(Cl)ccc21)CO3 [Compound 32]	3710	1.93
